Results published in patent publication US20030207393A1, “Cbp86, a sperm specific protein” (priority 2002, published 2003).
“Also recorded” adds a separate entry of the source.

Legend:
[1] = test system: 86 kDa form of CBP86; assay: In vitro capacitation of human sperm, anti-phosphotyrosine (RC-20) 2-D immunoblot of CBP86; format: cell-based; settings: for Capacitation-induced tyrosine phosphorylation of the 86 kDa CBP86 isoforms: human sperm capacitated in HTF plus HSA plus 100 μμM progesterone plus 100, 200 or 400 μμM of inhibitor
Procedure: Preparation of semen specimens and solubilization of sperm proteins were performed as previously described (Naaby-Hansen et al, 1997a.) For analytical two-dimensional electrophoresis the detergent/urea extracted proteins were separated by isoelectric focusing (IEF) in acrylamide tube gels prior to second dimensional gel electrophoresis (SDS-PAGE), which was performed in a Protean II xi Multi-Cell apparatus (Bio-Rad, Richmond, Calif.) or on large format (23×23 cm) gels (Investigator 2-D Electrophoresis System, ESA) which were also employed for preparative 2D gel electrophoresis. Electrotransfer to nitrocellulose membranes and subsequent visualizing of the proteins by gold staining was accomplished as previously described (Naaby-Hansen et al, 1997) while electrotransfer to PVDF membranes ([…], Pierce) was carried out as described by Henzel et al. (1993) using the transfer buffer composition of Matsudaira (1987) (10 mM 3-[cyclohexylamino]-1-propanesulfonic acid, 10% methanol, pH 11). The immobilized proteins were visualized by staining in a solution containing 0.1% Commassie R250, 40% methanol and 0.1% acetic acid for one minute, followed by destaining in a solution of 10% acetic acid and 50% methanol for 3×3 minutes.
Motile sperm were harvested by the swim up method of Bronson and Fusi (1990). A control sample was removed and snap frozen (−70 C.), while the remaining sperm were resuspended in one of the following media: Dulbecco's PBS, BWW, BWW plus 3 mM b-cyclodextran (Sigma), BWW plus b-cyclodextran and 100 μμM progesterone, human tubal fluid [HTF] (Irvine) plus HSA (30 mg/ml), HTF plus HSA plus 2, 20 or 100 μμM progesterone, HTF plus HSA plus 100 μμM progesterone plus either 100, 200 or 400 μμM of genestein or daidzein. (Akiyama et al., 1987). Capacitation was achieved by incubating the samples at 37° C. in 5% CO2 with sperm removed at various timepoints and isolated by centrifugation. […]

[2] = test system: T1, recombinant CBP86 (CR-A of CBP86 with C-terminal six-histidine tag, expressed in E. coli)
T1 sequence: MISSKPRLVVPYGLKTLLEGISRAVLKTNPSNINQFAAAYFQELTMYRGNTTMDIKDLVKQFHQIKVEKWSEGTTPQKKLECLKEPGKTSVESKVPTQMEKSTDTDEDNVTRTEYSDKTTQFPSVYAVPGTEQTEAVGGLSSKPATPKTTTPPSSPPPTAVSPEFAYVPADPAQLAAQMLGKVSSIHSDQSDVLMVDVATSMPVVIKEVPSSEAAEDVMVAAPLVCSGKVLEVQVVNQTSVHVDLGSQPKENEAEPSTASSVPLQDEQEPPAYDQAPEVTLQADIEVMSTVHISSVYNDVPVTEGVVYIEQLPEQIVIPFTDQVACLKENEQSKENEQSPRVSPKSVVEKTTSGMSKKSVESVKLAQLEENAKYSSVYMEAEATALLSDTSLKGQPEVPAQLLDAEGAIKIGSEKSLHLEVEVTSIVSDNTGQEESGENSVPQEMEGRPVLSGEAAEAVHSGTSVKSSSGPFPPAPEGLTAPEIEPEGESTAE

| Compound | Capacitation-induced tyrosine phosphorylation of the 86 kDa CBP86 isoforms [1] | also measured |
| --- | --- | --- |
| O=c1c(-c2ccc(O)cc2)coc2cc(O)ccc12 [daidzein] | had an inhibitory effect on phosphorylation of CBP86 |  |
| O=c1c(-c2ccc(O)cc2)coc2cc(O)cc(O)c12 [genistein] | inhibited in a concentration dependent manner |  |
| CC(=O)[C@H]1CC[C@H]2[C@@H]3CCC4=CC(=O)CC[C@]4(C)[C@H]3CC[C@]12C [progesterone] |  | Tyrosine phosphorylation of the most acidic of the CBP86 isoforms ([1]; 100 microM added to HTF+ albumin capacitation media, compared with HTF plus albumin alone): further enhanced the phosphorylation; also recorded: leads to phosphorylation of tyrosine residues on the acidic CBP86 isoforms |
| baculovirus expressed c-Src (Upstate Biotechnology, Inc.) |  | tyrosine phosphorylation of recombinant CBP86 in an in vitro kinase assay ([32P]ATP, SDS-PAGE, autoradiography) [2]: An increase in tyrosine phosphorylation of CBP86 was noted as its concentration increased in the presence of a constant amount of c-Src |
